# According to ChEMBL document CHEMBL1137832, “P1' oxadiazole protease inhibitors with excellent activity against native and protease inhibitor-resistant HIV-1” (Bioorg Med Chem Lett, 2004):
# pIC50: −log10 of the molar value.
# Experiments:
# MT4 [1] = experiment: Concentration required to inhibit spread of native HIV-1(K-60) protease obtained from PI-resistant clinical isolate in MT-4 human T-lymphoid cells; format: functional; settings: read-out: CIC95
# [2] = target: T1, Human immunodeficiency virus type 1 protease (Human immunodeficiency virus 1, UniProt Q72874); experiment: inhibitory concentration against HIV-1 protease from PI-resistant clinical isolate (V18)
# MT4 [3] = experiment: Concentration required to inhibit spread of native HIV-1(4X) protease obtained from PI-resistant clinical isolate in MT-4 human T-lymphoid cells; format: functional; settings: read-out: CIC95
# MT4 [4] = experiment: Concentration required to inhibit spread of native HIV-1(NL4-3) protease obtained from PI-resistant clinical isolate in MT-4 human T-lymphoid cells; format: functional; settings: read-out: CIC95
# MT4 [5] = experiment: Concentration required to inhibit spread of native HIV-1(Q-60) protease obtained from PI-resistant clinical isolate in MT-4 human T-lymphoid cells; format: functional; settings: read-out: CIC95
# MT4 [6] = experiment: Concentration required to inhibit spread of native HIV-1(V18) protease obtained from PI-resistant clinical isolate in MT-4 human T-lymphoid cells; format: functional; settings: read-out: CIC95
# [7] = target: T1, Human immunodeficiency virus type 1 protease; experiment: Inhibitory concentration against HIV-1 protease (NL4-3)
SMILES,IC95 (MT4 [1]),pIC50 [2],IC95 (MT4 [3]),IC95 (MT4 [4]),IC95 (MT4 [5]),IC95 (MT4 [6]),pIC50 [7]
CC(C)(c1ncc(-c2ccc(Cl)cc2)o1)N1CCN(C[C@@H](O)C[C@@H](Cc2nnco2)C(=O)N[C@H]2CCOC[C@H]2O)[C@H](C(=O)NCC(F)(F)F)C1,63 nM,10.40,31 nM,125 nM,31 nM,63 nM,> 11.00
CCCc1nnc(C[C@H](C[C@H](O)CN2CCN(C(C)(C)c3ncc(-c4ccc(Cl)cc4)o3)C[C@H]2C(=O)NCC(F)(F)F)C(=O)N[C@H]2CCOC[C@H]2O)o1,16 nM,9.74,≤ 8 nM,≤ 8 nM,≤ 8 nM,63 nM,> 11.00
O=C(N[C@H]1CCOC[C@H]1O)[C@H](Cc1nnco1)C[C@H](O)CN1CCN(Cc2ccc(-c3ccc(Cl)cc3)o2)C[C@H]1C(=O)NCC(F)(F)F,63 nM,10.05,31 nM,63 nM,31 nM,125 nM,11.00
COc1cncc(-c2cnc(C(C)(C)N3CCN(C[C@@H](O)C[C@@H](Cc4nnc(-c5ccccc5)o4)C(=O)N[C@H]4CCOC[C@H]4O)[C@H](C(=O)NCC(F)(F)F)C3)o2)c1,250 nM,,250 nM,125 nM,500 nM,< 1000 nM,9.32
Cc1nnc(C[C@H](C[C@H](O)CN2CCN(Cc3ccc(-c4ccc(Cl)cc4)o3)C[C@H]2C(=O)NCC(F)(F)F)C(=O)N[C@H]2CCOC[C@H]2O)o1,31 nM,,31 nM,≤ 63 nM,31 nM,63 nM,> 11.00
Cc1nnc(C[C@H](C[C@H](O)CN2CCN(C(C)(C)c3ncc(-c4ccc(Cl)cc4)o3)C[C@H]2C(=O)NCC(F)(F)F)C(=O)N[C@H]2CCOC[C@H]2O)o1,31 nM,10.22,16 nM,250 nM,≤ 8 nM,63 nM,11.00
O=C(N[C@H]1CCOC[C@H]1O)[C@H](Cc1nnc(-c2ccccc2)o1)C[C@H](O)CN1CCN(Cc2ccc(-c3ccc(Cl)cc3)o2)C[C@H]1C(=O)NCC(F)(F)F,≤ 8 nM,,125 nM,15.6 nM,63 nM,250 nM,11.00
Cc1nnc(C[C@H](C[C@H](O)CN2CCN(C(C)(C)c3ncc(-c4ccc(F)cc4)o3)C[C@H]2C(=O)NCC(F)(F)F)C(=O)N[C@H]2CCOC[C@H]2O)o1,125 nM,9.72,31 nM,125 nM,31 nM,63 nM,10.70
CC(C)(c1ncc(-c2ccc(F)cc2)o1)N1CCN(C[C@@H](O)C[C@@H](Cc2nnco2)C(=O)N[C@H]2CCOC[C@H]2O)[C@H](C(=O)NCC(F)(F)F)C1,125 nM,10.22,31 nM,125 nM,31 nM,125 nM,10.70
CCCc1nnc(C[C@H](C[C@H](O)CN2CCN(C(C)(C)c3ncc(-c4ccc(F)cc4)o3)C[C@H]2C(=O)NCC(F)(F)F)C(=O)N[C@H]2CCOC[C@H]2O)o1,16 nM,9.72,16 nM,16 nM,≤ 8 nM,63 nM,11.00
COc1cncc(-c2cnc(C(C)(C)N3CCN(C[C@@H](O)C[C@@H](Cc4nnc(C)o4)C(=O)N[C@H]4CCOC[C@H]4O)[C@H](C(=O)NCC(F)(F)F)C3)o2)c1,> 1000 nM,7.82,> 1000 nM,> 1000 nM,> 1000 nM,> 1000 nM,9.40
CC(C)(c1ncc(-c2ccc(Cl)cc2)o1)N1CCN(C[C@@H](O)C[C@@H](Cc2nnc(-c3ccccc3)o2)C(=O)N[C@H]2CCOC[C@H]2O)[C@H](C(=O)NCC(F)(F)F)C1,≤ 8 nM,9.74,16 nM,≤ 8 nM,16 nM,125 nM,> 11.00
CCCc1nnc(C[C@H](C[C@H](O)CN2CCN(C(C)(C)c3ncc(-c4cncc(OC)c4)o3)C[C@H]2C(=O)NCC(F)(F)F)C(=O)N[C@H]2CCOC[C@H]2O)o1,500 nM,,500 nM,500 nM,500 nM,< 1000 nM,9.49
CCCc1nnc(C[C@H](C[C@H](O)CN2CCN(Cc3ccc(-c4ccc(Cl)cc4)o3)C[C@H]2C(=O)NCC(F)(F)F)C(=O)N[C@H]2CCOC[C@H]2O)o1,≤ 8 nM,,31 nM,≤ 8 nM,16 nM,125 nM,> 11.00
COc1cncc(-c2cnc(C(C)(C)N3CCN(C[C@@H](O)C[C@@H](Cc4nnco4)C(=O)N[C@H]4CCOC[C@H]4O)[C@H](C(=O)NCC(F)(F)F)C3)o2)c1,,8.13,,,,,9.62
CC(C)(c1ncc(-c2ccc(F)cc2)o1)N1CCN(C[C@@H](O)C[C@@H](Cc2nnc(-c3ccccc3)o2)C(=O)N[C@H]2CCOC[C@H]2O)[C@H](C(=O)NCC(F)(F)F)C1,≤ 8 nM,,16 nM,≤ 8 nM,16 nM,63 nM,10.70
CC(C)(C)NC(=O)[C@@H]1CN(Cc2cccnc2)CCN1C[C@@H](O)C[C@@H](Cc1ccccc1)C(=O)N[C@H]1c2ccccc2C[C@H]1O,> 1000 nM,,400 nM,50 nM,> 1000 nM,> 1000 nM,
